Among the data in US5834462A, “Tricyclic heterocyclic sulfonamide and sulfonic ester derivatives” (Eisai Co., Ltd., priority 1993, dated 1998) are IC50 values, retold here.

SMILES strings stand for the structures. Values after ≈ are worked out from the molar mass of the structure shown.

This test has as its system KB cells (human nasopharyngeal cancer cells). As to the kind of experiment: in vitro Antitumor test on KB cells (MTT). In kind it is cell-based. Particulars: 72 h, 3 days incubation. The method, then:
in vitro Antitumor test on KB cells (human nasopharyngeal cancer cells)
KB cells suspended in an RPMI1640 medium (mfd. by Nissui Seiyaku K. K.), which contained 10% of fetal calf serum, 100 U/mi of penicillin, 100 μg/ml of streptomycin, 5×10^-5 M of mercaptoethanol and 1 mM of sodium pyruvate, were inoculated in 1.25×10^3 portions (0.1 ml) into wells of a 96-well flat-bottomed microplate and then incubated in an incubator containing 5% of carbon dioxide at 37° C. for a day.
A compound of the present invention was dissolved in dimethyl sulfoxide in a concentration of 20 mg/ml and diluted with a 10% fetal calf serum-RPMI1640 culture medium to a concentration of 100 μg/ml. By using this concentration as the highest level, threefold serial dilution was performed with a 10% fetal calf serum-RPMI1640 culture medium. Then it was added in 0.1 ml portions into the wells of the above-mentioned plate wherein the KB cells had been incubated followed by incubation in the incubator containing 5% of carbon dioxide at 37° C. for 3 days.
After incubating, an MTT (3-(4,5-dimethylthiazol-2-yl)-2,5-diphenyltetrazolium bromide) solution (3.3 mg/ml) was added in 0.05 ml portions into the wells and the incubation was effected for additional 1 hour. After sucking off the supernatant from each well, the formazane thus formed was dissolved in 0.1 ml of dimethyl sulfoxide. Then the absorbance at 540 nm was measured with a microplate reader and employed as an indication of the vital cell count. In accordance with the following equation, the inhibitory ratio was calculated and the 50% inhibitory concentration (IC50) of the test compound was determined. [formula] T: absorbance of a well containing the test commpound. C: absorbance of a well containing no test compound.
A word on the IC50: it is the concentration needed to halve the response being measured. A high value points to lower potency. `COc1ccc(S(=O)(=O)Nc2cccc3c2Nc2ccc(O)cc2O3)cc1` [Example 22, N-(7-Hvdroxy-10H-phenoxain-1-yl)-4-methoxybenzene-sulfonamide]: the IC50 was 0.17 µg/mL (≈ 0.442 µM).

`COc1ccc(S(=O)(=O)Nc2cccc3cc4ccccc4nc23)cc1` [Example 14, N-(4-Acridinyl)-4-methoxybenzenesulfonamide] returned an IC50 of 0.026 µg/mL (≈ 0.0713 µM).

Compound `COc1ccc(S(=O)(=O)Nc2cccc3c2[nH]c2ccccc23)cc1` [Example 2, N-(9H-Carbazol-1-yl)-4-methoxybenzenesulfornamide] displayed an IC50 of 0.1 µg/mL (≈ 0.284 µM).

In turn, `COc1ccc(S(=O)(=O)Nc2cccc3c2Nc2ccc(F)cc2NC3)cc1` [Example 49, N-(10,11-Dihydro-8-fluoro-5H-dibenzo(b,e)(1,4)-diazepin-4-yl)-4-methoxybenzenesulfonamide] yielded an IC50 of 0.08 µg/mL (≈ 0.2 µM).

In the case of `COc1ccc(S(=O)(=O)Nc2cccc3c2Nc2ccc(C)cc2CN3)cc1` [Example 31, N-10,11-Dihydro-2-methyl-5H-dihenzn(b,e)(1,4)-diazepin-6-yl)-4-methoxyhenenesulfonamide], inhibition was half-maximal at 0.27 µg/mL (≈ 0.683 µM) (IC50). This IC50 is about 3.4-fold higher than that of the compound before.

Compound `COc1ccc(S(=O)(=O)Nc2cccc3oc4cc(=O)ccc-4nc23)cc1` [Example 24, 4-Methoxy-N-(3H-phenoxazin-3-on-9-yl)benzene-sulfonamide] showed a concentration for half-maximal inhibition (IC50) of 0.0061 µg/mL (≈ 0.016 µM).

Take `COc1ccc(S(=O)(=O)Nc2cccc3c2Nc2ccccc2C=C3)cc1` [Example 9, N-(5H-Dibenz[b,f]azepin-4-yl)-4-methoxybenzene-sulfonamilde]: it took 0.23 µg/mL (≈ 0.608 µM) to reach half-maximal inhibition (IC50).

`COc1ccc(S(=O)(=O)Nc2cccc3c(=O)c4ccccc4[nH]c23)cc1` [Example 4, N-(9(10H)-Acridinon-4-yl)-4-methoxyhenzenesulfonamide] yielded an IC50 of 0.17 µg/mL (≈ 0.447 µM).

`COc1ccc(S(=O)(=O)Nc2cccc3c2N(C)c2ccccc2O3)cc1` [Example 29, 4-Methoxy-N-(10-methyl-10H-phenoxazin-1-yl)benzene-sulfonamide] displayed an IC50 of 0.11 µg/mL (≈ 0.288 µM).

Turning to `COc1ccc(S(=O)(=O)Nc2cccc3c2Nc2ccccc2CC3)cc1` [Example 6, N-(10,11-Dihydro-5H-dibenz(b,f)azepin-4-yl)-4-methoxybenzenesulfonamide], the IC50 was determined as 0.09 µg/mL (≈ 0.237 µM).

`COc1ccc(S(=O)(=O)Nc2cccc3sc4cc(=O)ccc-4nc23)cc1` [Example 25, 4-Methoxy-N-(3-phenothiazin-3-on-9-yl)benzene-sulfonamide] returned an IC50 of 0.016 µg/mL (≈ 0.0402 µM).

`COc1ccc(S(=O)(=O)Nc2cccc3c2Nc2ccc(CO)cc2O3)cc1` [Example 33, N-(7-Hydroxymethyl-10-phenoxazin-1-yl)-4-methoxy-benzenesulfonamide] displayed an IC50 of 0.043 µg/mL (≈ 0.108 µM).

Consider `COc1ccc(S(=O)(=O)Nc2cccc3c2Nc2cncnc2S3)cc1` [Example 35, 4-Melthoxy-N-(5H-pyrimido(4,5-b)(1,4)benzothizin-6-yl)benzenesulfonamide], for which the IC50 is 0.25 µg/mL (≈ 0.647 µM).

With `COc1ccc(S(=O)(=O)Nc2cccc3c2Nc2ccc(OCCCO)cc2CN3)cc1` [Example 44, N-(10,11-Dihydro-2-(3-hydroxypropyloxy)-5H-dibenzo-(b,e)(1,4)(diazepin-6-yl)4-metbhoxybenzenesulfonamide], the IC50 worked out at 0.077 µg/mL (≈ 0.169 µM).

`Cc1ccc(S(=O)(=O)Nc2cccc3c2Nc2ccc(O)cc2CO3)cc1` [Example 38, N-(5,11-Ditiydro-2-hydroxydihenz(b,e)(1,4)oxazepin-6-yl)-4-methylbenzenesulfonamide]: inhibition was half-maximal at 0.047 µg/mL (≈ 0.123 µM) (IC50).

Take `COc1ccc(S(=O)(=O)Nc2cccc3c2NC(=O)c2ccccc2O3)cc1` [Example 12, N-(Dibenrz(b,f)(1,4)oxazepin-11(10H)-on-9-yl)-4-methoxybenzenelfonamide]: the IC50 came to 0.25 µg/mL (≈ 0.631 µM).

`COc1ccc(S(=O)(=O)Nc2cccc3c2Nc2ccc(NC(C)=O)cc2CN3)cc1` [Example 43, N-(2-Acetylamino-10,11-dibydro-5H-dibhenz(b,e)(1,4)-diazepin-6-yl)-4-methoxybenzenesulfonamide]: the IC50 was determined as 0.22 µg/mL (≈ 0.502 µM).
